Data: EPA's ToxRefDB 2

Experiments:
[1] = system: rat; conditions: Subchronic oral toxicity in rodents, sprague dawley, Gavage/Intubation, dose end: 13 week, group: systemic, systemic / clinical chemistry / thyroxine (t4) / thyroxine (t4), total + systemic / organ weight / thyroid gland / absolute + systemic / …
[2] = system: rabbit; conditions: Prenatal developmental toxicity study, new zealand white, Oral, Gavage/Intubation, dose end: 19 GD
[3] = system: rat; conditions: Subchronic dermal toxicity, sprague dawley, Topical, dose end: 21 day, group: systemic
[4] = system: rat; conditions: Fertility (Segment I); sprague dawley; Oral; Gavage/Intubation; dose end: 7 GD; group: parental; systemic / in life observation / food consumption / food consumption + systemic / organ weight / uterus / nos
[5] = system: dog; conditions: Sub-acute repeat dose toxicity; beagle; Oral; Gavage/Intubation; dose end: 4 week; group: systemic; systemic / hematology / blood clotting / blood clotting - prothrombin time + systemic / hematology / blood clotting / blood clotting - …
[6] = system: rabbit; conditions: Prenatal developmental toxicity study, new zealand white, Oral, Gavage/Intubation, dose end: 19 GD; remark: listed apart in the source
[7] = system: rat; conditions: Prenatal developmental toxicity study; sprague dawley; Oral; Gavage/Intubation; dose end: 17 GD; group: maternal; systemic / in life observation / body weight / body weight gain
[8] = system: dog; conditions: Subchronic oral toxicity in nonrodent, beagle, Gavage/Intubation, dose end: 3 month, group: systemic, systemic / hematology / blood clotting / blood clotting - activated partial thromboplastin time + systemic / hematology / blood clotting / …
[9] = system: rat; conditions: Prenatal developmental toxicity study, sprague dawley, Oral, Gavage/Intubation, dose end: 17 GD
[10] = system: rabbit; conditions: Prenatal developmental toxicity study, new zealand white, Oral, Gavage/Intubation, dose end: 19 GD; remark: listed apart in the source
[11] = system: rat; conditions: Chronic toxicity, sprague dawley, Oral, Gavage/Intubation, dose end: 6 month, group: systemic
[12] = system: rat; conditions: Sub-acute repeat dose toxicity; sprague dawley; Oral; Gavage/Intubation; dose end: 4 week; group: systemic; systemic / hematology / blood clotting / blood clotting - activated partial thromboplastin time + systemic / hematology / blood clotting / …
[13] = system: rat; conditions: Subchronic oral toxicity in rodents, wistar, Feed, dose end: 98 day, group: systemic
[14] = group: developmental, developmental / developmental malformation / brain / hydrocephaly + developmental / developmental malformation / mouth / jaw / cleft palate…
[15] = group: maternal, systemic / in life observation / body weight / body weight gain + systemic / in life observation / food consumption / food consumption + …
[16] = systemic / clinical chemistry / triiodothyronine (t3) / triiodothyronine (t3), total
[17] = group: developmental, systemic / in life observation / body weight / fetal weight
[18] = group: maternal, systemic / in life observation / body weight / body weight gain + systemic / in life observation / food consumption / food consumption
[19] = group: developmental, developmental / developmental malformation / bone / supernumerary
[20] = group: developmental, developmental / developmental malformation / general / [other] + systemic / in life observation / body weight / fetal weight
[21] = group: maternal, systemic / in life observation / body weight / body weight gain + systemic / in life observation / clinical signs / alopecia + systemic / in…
[22] = systemic / hematology / blood clotting / blood clotting - activated partial thromboplastin time + systemic / hematology / blood clotting / …
[23] = systemic / in life observation / body weight / body weight gain + systemic / organ weight / pituitary gland / relative to body weight + …
[24] = systemic / in life observation / body weight / body weight gain + systemic / in life observation / clinical signs / wetness + systemic / …

**Q.** Which results are given for `S=C([S-])NCCNC(=S)[S-].[Na+].[Na+]` [Nabam-sodium]?
**A.** LEL [1]: 80 mg/kg/day; LOAEL [1]: 80 mg/kg/day; NEL [1]: 0.8 mg/kg/day; NOAEL [1]: 0.8 mg/kg/day; LEL [2, 14]: 2.62 mg/kg/day; LOAEL [2, 14]: 2.62 mg/kg/day; NEL [2, 14]: 0.328 mg/kg/day; NOAEL [2, 14]: 0.328 mg/kg/day; LEL [2, 15]: 32.8 mg/kg/day; LOAEL [2, 15]: 32.8 mg/kg/day; NEL [2, 15]: 2.62 mg/kg/day; NOAEL [2, 15]: 2.62 mg/kg/day; LEL [3, 16]: 15 mg/kg/day; NEL [3, 16]: < 15 mg/kg/day; NOAEL ([3]; systemic / clinical chemistry / triiodothyronine (t3) / triiodothyronine (t3), total + systemic / in life observation / clinical signs / …): 15 mg/kg/day; LOAEL ([3]; systemic / in life observation / clinical signs / erythema): 150 mg/kg/day

**Q.** Which results are given for `O=C([O-])c1ccc2c(c1)nc(C(=O)NC1CCN(C3CC3)CC1)n2Cc1cc(-c2ccc(Cl)s2)on1.[Na+]` [AVE3247]?
**A.** LEL [4]: 2000 mg/kg/day; LOAEL [4]: > 2000 mg/kg/day; NEL [4]: 500 mg/kg/day; NOAEL [4]: ≥ 2000 mg/kg/day; LEL [5]: 10 mg/kg/day; LOAEL [5]: > 100 mg/kg/day; NEL [5]: < 10 mg/kg/day; NOAEL [5]: ≥ 100 mg/kg/day; LEL [6, 17]: 2000 mg/kg/day; LOAEL [6, 17]: 2000 mg/kg/day; NEL [6, 17]: 500 mg/kg/day; NOAEL [6, 17]: 500 mg/kg/day; LEL [6, 18]: 500 mg/kg/day; LOAEL [6, 18]: 500 mg/kg/day; NEL [6, 15]: 200 mg/kg/day; NOAEL [6, 15]: 200 mg/kg/day; LEL [7]: 2000 mg/kg/day; LOAEL [7]: > 2000 mg/kg/day; NEL [7]: 1000 mg/kg/day; NOAEL [7]: ≥ 2000 mg/kg/day; LEL [8]: 10 mg/kg/day; LOAEL [8]: > 80 mg/kg/day; NEL [8]: < 10 mg/kg/day; NOAEL [8]: ≥ 80 mg/kg/day; LEL [9, 19]: 500 mg/kg/day; LOAEL [9, 19]: 500 mg/kg/day; NEL [9, 19]: 200 mg/kg/day; NOAEL [9, 19]: 200 mg/kg/day; LEL [9, 18]: 2000 mg/kg/day; LOAEL [9, 18]: 2000 mg/kg/day; NEL [9, 18]: 500 mg/kg/day; NOAEL [9, 18]: 500 mg/kg/day; LEL [10, 20]: 2000 mg/kg/day; LOAEL [10, 20]: > 2000 mg/kg/day; NEL [10, 20]: 1000 mg/kg/day; NOAEL [10, 20]: ≥ 2000 mg/kg/day; LEL [10, 21]: 500 mg/kg/day; LOAEL [10, 21]: 1000 mg/kg/day; NEL [10, 21]: < 500 mg/kg/day; NOAEL [10, 21]: 500 mg/kg/day; LEL [11, 22]: 200 mg/kg/day; NEL [11, 22]: < 200 mg/kg/day; LOAEL [11, 23]: 2000 mg/kg/day; NOAEL [11, 23]: 500 mg/kg/day; LEL [12]: 200 mg/kg/day; LOAEL [12]: > 2000 mg/kg/day; NEL [12]: < 200 mg/kg/day; NOAEL [12]: ≥ 2000 mg/kg/day

**Q.** How did the LOAEL [13, 24] turn out when `Oc1cc(Cl)c(Cl)cc1Cl` [2,4,5-Trichlorophenol] was run?
**A.** > 1000 mg/kg/day

**Q.** And the NEL [13, 24]?
**A.** 100 mg/kg/day

**Q.** And the NOAEL [13, 24]?
**A.** ≥ 1000 mg/kg/day

**Q.** What about the LEL ([13]; systemic / in life observation / clinical signs / wetness + systemic / pathology microscopic / kidney / degeneration + systemic / pathology …) of the same molecule?
**A.** 300 mg/kg/day
